Target: Lp-CdnE02 (CD-NTase057) (Legionella pneumophila, UniProt P0DSP3)
Sequence (P0DSP3 whole entry, looked up): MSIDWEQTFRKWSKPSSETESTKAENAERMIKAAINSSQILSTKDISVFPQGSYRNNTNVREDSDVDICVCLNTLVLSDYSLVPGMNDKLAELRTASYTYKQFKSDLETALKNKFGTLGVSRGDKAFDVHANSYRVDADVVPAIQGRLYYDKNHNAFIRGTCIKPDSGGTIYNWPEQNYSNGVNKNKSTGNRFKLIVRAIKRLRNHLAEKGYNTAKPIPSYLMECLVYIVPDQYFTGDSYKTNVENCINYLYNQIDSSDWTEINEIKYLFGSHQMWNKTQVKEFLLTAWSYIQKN

## O=c1ccn([C@@H]2O[C@H](COP(=O)(O)OP(=O)(O)OP(=O)(O)O)[C@@H](O)[C@H]2O)c(=O)[nH]1 [UTP]
  radiolabelled NTP, TLC and mass spectrometry: Lp-CdnE02 synthesized predominantly c-di-UMP

— paper PMC6544370 (Nature, 2019)
